Assay results published in patent publication US4636499A, “Sulphenamides” (priority 1984, dated 1987).

How the values were obtained:
[1] = test system: gastric acid secretion; experiment: Inhibiting effect in vivo on gastric acid secretion in conscious dog; conditions: 4 μmol/kg; orally by stomach tube; histamine-induced; gastric fistula dogs
Protocol: II. Inhibiting effect in vivo on gastric acid secretion in conscious dog
Chronic gastric fistula dogs were used. These dogs have been surgically provided with a gastric cannula in the stomach and a duodenal fistula used for direct intraduodenal administration of test compounds. Following a 4 weeks' recovery period after surgery, tests were performed once a week on each dog. Food and water were withdrawn 18 hours before each test.
The test compound was suspended in 0.5% Methocel® (90 HG, 15.000, Dow Chem Corp.), the pH was immediately adjusted to about 4 by addition of hydrochloric acid and the suspension administered orally by using a stomach tube. After 1 hour gastric acid secretion was induced by continuous infusion of histamine at individual doses (400-600 nmol/kg, h), resulting in approx. 90% of maximal secretion of gastric acid. The gastric juice was collected by free flow from the gastric cannula in consecutive 30 minutes samples for 2 hours. The samples were titrated to pH 7.0 with 0.1M NaOH using a Radiometer automatic titrator and the acid output was calculated. The percent inhibition of acid secretion was calculated by comparing in each dog the acid output in the tests to the acid output in control tests when only the vehicle was given. The peak inhibitory effect for each compound was determined. […]

[2] = molecular target: T1, Hog gastric H^+,K^+ -ATPase (Sus scrofa, UniProt P19156); experiment: In vitro inhibition of gastric H^+,K^+-ATPase; assay type: biochemical; conditions: pH 7,4; 30 minutes of incubation; 10 μg membrane protein (GI-fraction); read-out: concentration at half-maximal inhibition (IC50) (converted)
T1 construct: from tissue; host or cells: hog gastric membranes (GI-fraction)
T1 sequence (P19156 2-1034 limits assumed): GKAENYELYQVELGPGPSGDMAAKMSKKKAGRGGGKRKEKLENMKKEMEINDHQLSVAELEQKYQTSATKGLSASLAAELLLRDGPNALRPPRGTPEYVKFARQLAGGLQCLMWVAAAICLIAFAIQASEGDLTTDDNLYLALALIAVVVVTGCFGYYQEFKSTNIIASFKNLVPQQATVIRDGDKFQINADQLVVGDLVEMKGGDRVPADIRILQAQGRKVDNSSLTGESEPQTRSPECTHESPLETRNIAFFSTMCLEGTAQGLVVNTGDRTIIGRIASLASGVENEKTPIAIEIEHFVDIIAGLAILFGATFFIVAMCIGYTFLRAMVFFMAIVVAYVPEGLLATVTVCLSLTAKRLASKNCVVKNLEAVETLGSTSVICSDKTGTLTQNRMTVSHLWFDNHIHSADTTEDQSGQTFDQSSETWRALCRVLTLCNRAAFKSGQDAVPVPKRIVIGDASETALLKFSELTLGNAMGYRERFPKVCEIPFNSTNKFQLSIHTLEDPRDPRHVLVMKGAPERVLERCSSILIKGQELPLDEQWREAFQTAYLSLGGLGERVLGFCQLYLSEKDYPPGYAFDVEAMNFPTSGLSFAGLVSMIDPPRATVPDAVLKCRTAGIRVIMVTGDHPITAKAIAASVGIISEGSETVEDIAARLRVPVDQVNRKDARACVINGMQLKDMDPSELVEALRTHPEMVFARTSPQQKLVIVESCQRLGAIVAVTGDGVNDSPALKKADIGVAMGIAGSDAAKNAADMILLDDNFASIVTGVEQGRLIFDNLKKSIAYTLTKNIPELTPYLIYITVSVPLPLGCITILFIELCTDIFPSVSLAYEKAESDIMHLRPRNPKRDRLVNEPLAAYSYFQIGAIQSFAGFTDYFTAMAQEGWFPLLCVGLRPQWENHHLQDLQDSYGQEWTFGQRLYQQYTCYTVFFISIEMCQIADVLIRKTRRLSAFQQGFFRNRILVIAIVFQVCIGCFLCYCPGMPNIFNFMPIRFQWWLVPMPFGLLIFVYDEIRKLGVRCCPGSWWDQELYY
T1 sequence (P18434 whole entry partner): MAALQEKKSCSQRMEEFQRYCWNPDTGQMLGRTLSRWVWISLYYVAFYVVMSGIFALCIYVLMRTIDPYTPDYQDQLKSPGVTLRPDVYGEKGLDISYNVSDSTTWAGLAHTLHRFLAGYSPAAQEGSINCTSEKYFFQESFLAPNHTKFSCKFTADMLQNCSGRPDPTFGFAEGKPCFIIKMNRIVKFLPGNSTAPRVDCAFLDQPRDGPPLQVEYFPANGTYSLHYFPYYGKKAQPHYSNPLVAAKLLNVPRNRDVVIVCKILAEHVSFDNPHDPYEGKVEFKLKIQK
Protocol: I. In vitro inhibition of gastric H^+,K^+ -ATPase
Hog gastric H^+,K^+ -ATPase was purified according to Saccomani et al., Biochim. Biophys. Acta 465, 311-330, 1977. 10 μg of membrane protein (GI-fraction in the reference listed above) was incubated with 2 mmol/l of piperazine-N,N'-bis-(2-ethane sulfonic acid) buffer pH 7,4 and the test compound in concentrations 10^-7 -10^-4 M in a final volume of 1 ml. (The test compound was dissolved in methanol. Aliquots of these stock solutions were diluted to a final methanol concentration below 1%, which on its own had no effect on the enzyme activities.) After 30 minutes of incubation, the remaining H^+,K^+ -ATPase activity was determined, according to Wallmark et al., Biochim. Biophys. Acta, 728, 31-38, 1983. A dose-response curve was constructed and the concentration at half-maximal inhibition (IC50) could be determined.

[3] = test system: ethanol-induced gastric lesions; experiment: In vivo cytoprotective effect: effect on ethanol-induced gastric lesions in the rat; set-up: species or system rat (female Spraque-Dawley); conditions: for total lengths of lesions in the stomachs: 20 μmol/kg oral
Protocol: III. In vivo cytoprotective effect: Effect on ethanol-induced gastric lesions in the rat
Two groups of female Spraque-Dawley rats (190-220 g) were used, one for the test compound and one for the control experiment. Food, but not water, was removed 24 h before the experiments.
The animals in the test group were treated orally with the test compound dissolved in 0.01M HCl immediately before the test and the animals in the control group were given the vehicle (0.01M HCl) in a dose of 1 ml/kg.
Five or thirty minutes later the rats were given orally 1 ml of absolute ethanol (a standard agent for inducing gastric mucosal lesions).
Thirty minutes later the rats were killed by carbon dioxide asphyxiation, their stomachs dissected out and the gastric mucosae were examined for the presence of necrotic lesions. The total lengths of the lesions in the stomachs were measured in the test group and in the control group, in both cases treated five and thirty minutes before with ethanol.

IC50 [2]: 600 nM
Substance: 2,4-Dimethyl-3,9-dimethoxy-5H-pyrido[1',2':4,5][1,2,4]thiadiazino[2,3-a]benzimidazol-13-ium tetrafluoroborate (1A) and 2,4-Dimethyl-3,10-dimethoxy-5H-pyrido[1',2':4,5][1,2,4]thiadiazino[2,3-a]benzimidazol-13-ium tetrafluoroborate (1B) (isomeric mixture) [Examples 1A and 1B]
percent inhibition of acid secretion (peak inhibitory effect) [1]: 40%
total lengths of lesions in the stomachs ([3]; 5 min before ethanol, control 11.4 cm): 5.3 cm
total lengths of lesions in the stomachs ([3]; 30 min before ethanol, control 10.4 cm): 4.4 cm
ED50-value (cytoprotective effect) ([3]; oral, ethanol-induced gastric lesions, indicated by lesion reduction at 20 μmol/kg): below 20 μmol/kg
